Source: ChEMBL document CHEMBL1151562, “Stereoselective synthesis of novel analogues of 2-deoxy- and 2,3-dideoxynucleosides with potential antiviral activity” (Bioorg Med Chem Lett, 1994)
Activity calls are given as the source filed them.

What was measured:
Assay type in all cases: functional, cell-based
Daudi [1] = assay: Tested for antiproliferative activity against human tumor DAUDI EBV-immortalized B-lymphoid cells up to 72 hrs at concentration of 10 ug/ml; Inactive
Daudi [2] = assay: Tested for antiproliferative activity against human tumor DAUDI EBV-immortalized B-lymphoid cells up to 72 hrs at concentration of 2.5 ug/ml; Inactive
Daudi [3] = assay: Tested for antiproliferative activity against human tumor DAUDI EBV-immortalized B-lymphoid cells up to 72 hrs at concentration of 5 ug/ml; Inactive
[4] = Tested for cell count against human tumor Molt-4 cell line for antiproliferative activity; Inactive
Daudi [5] = assay: Tested for antiproliferative activity against human tumor DAUDI EBV-immortalized B-lymphoid cells up to 72 hrs at concentration of 1.25 ug/ml; Inactive
[6] = Tested for cell count against human tumor DAUDI EBV-immortalized B-lymphoid cells for antiproliferative activity; Inactive
K562 = assay: Tested for cell count against human tumor K562 erythromyeloid stem cells for antiproliferative activity; Inactive
[7] = Tested for cell count against human tumor MT-2 T-lymphoid cells for antiproliferative activity; Inactive
MT2 [8] = assay: Tested for antiproliferative activity against human tumor MT-2 T-lymphoid cells up to 72 hrs at concentration of 1.25 ug/ml; Inactive
MT2 [9] = assay: Tested for antiproliferative activity against human tumor MT-2 T-lymphoid cells up to 72 hrs at concentration of 10 ug/ml; Inactive
MT2 [10] = assay: Tested for antiproliferative activity against human tumor MT-2 T-lymphoid cells up to 72 hrs at concentration of 2.5 ug/ml; Inactive
MT2 [11] = assay: Tested for antiproliferative activity against human tumor MT-2 T-lymphoid cells up to 72 hrs at concentration of 5 ug/ml; Inactive
[12] = Tested for antiproliferative activity against human tumor U937 cell line up to 72 hrs at concentration of 1.25 ug/ml; Inactive
[13] = (§1) Tested for antiproliferative activity against human tumor U937 cell line up to 72 hrs at concentration of 10 ug/ml; Inactive
[14] = Tested for antiproliferative activity against human tumor U937 cell line up to 72 hrs at concentration of 2.5 ug/ml; Inactive
[15] = (§2) Tested for antiproliferative activity against human tumor U937 cell line up to 72 hrs at concentration of 5 ug/ml; Inactive
[16] = Tested for cell count against human tumor HL60 myeloid cells for antiproliferative activity; Inactive
MOLT-4 [17] = assay: Tested for antiproliferative activity against human tumor Molt-4 cell line up to 72 hrs at concentration of 5 ug/ml; Inactive
MOLT-4 [18] = assay: Tested for antiproliferative activity against human tumor Molt-4 cell line up to 72 hrs at concentration of 1.25 ug/ml; Inactive
MOLT-4 [19] = assay: Tested for antiproliferative activity against human tumor Molt-4 cell line up to 72 hrs at concentration of 10 ug/ml; Inactive
MOLT-4 [20] = assay: Tested for antiproliferative activity against human tumor Molt-4 cell line up to 72 hrs at concentration of 2.5 ug/ml; Inactive
HL-60 [21] = assay: Tested for antiproliferative activity against human tumor HL60 myeloid cells up to 72 hrs at concentration of 10 ug/ml; Inactive
Daudi [22] = assay: as §1; conditions: U-937
HL-60 [23] = assay: as §2

Measured: Activity

C[C@@H]1C[C@@H](CO)O[C@H]1n1ccc(=O)[nH]c1=O
not listed: HL-60 [21] | Daudi [22] | HL-60 [23]
inactive: all other assays above

CC1[C@@H](O)[C@@H](CO)O[C@H]1n1ccc(=O)[nH]c1=O (single isomer, unassigned; 5a)
not listed: [13] | HL-60 [23]
inactive: all other assays above

CCCC1C(O)[C@@H](CO)O[C@H]1n1ccc(N)nc1=O (single isomer, unassigned)
not listed: HL-60 [21] | Daudi [22] | HL-60 [23]
inactive: all other assays above

C=CC[C@H]1C[C@@H](CO)OC1n1ccc(=O)[nH]c1=O (some centres not stated)
not listed: HL-60 [21] | Daudi [22]
inactive: all other assays above

C=CCC1C(O)[C@@H](CO)O[C@H]1n1ccc(=O)[nH]c1=O (single isomer, unassigned)
not listed: HL-60 [21] | Daudi [22] | HL-60 [23]
inactive: all other assays above

C[C@H]1C[C@@H](CO)O[C@H]1n1ccc(=O)[nH]c1=O
not listed: HL-60 [21] | Daudi [22] | HL-60 [23]
inactive: all other assays above

CCCC1C(O)[C@@H](CO)O[C@H]1n1ccc(=O)[nH]c1=O (single isomer, unassigned)
not listed: HL-60 [21] | Daudi [22] | HL-60 [23]
inactive: all other assays above

C=CCC1C(O)[C@@H](CO)O[C@H]1n1ccc(N)nc1=O (single isomer, unassigned)
not listed: HL-60 [21] | Daudi [22] | HL-60 [23]
inactive: all other assays above

CC1[C@@H](O)[C@@H](CO)O[C@H]1n1ccc(=O)[nH]c1=O (single isomer, unassigned; 5b)
not listed: HL-60 [21] | Daudi [22] | HL-60 [23]
inactive: all other assays above

CCC[C@H]1C[C@@H](CO)OC1n1ccc(=O)[nH]c1=O (some centres not stated)
not listed: HL-60 [21] | Daudi [22] | HL-60 [23]
inactive: all other assays above
